Laboratory results as given in the NIST ThermoML archive (doi:10.1016/j.fluid.2006.12.011).

Experiment: xn = mol fraction of the nth substance listed
Details: Liquid, Vibrating tube method

C1CC[C@H]2CCCC[C@H]2C1 [cis-decahydronaphthalene] + C1CC[C@H]2CCCC[C@@H]2C1
mass density [kg/m3]
Details | x1 = 0.2 | x1 = 0.35 | x1 = 0.5 | x1 = 0.65 | x1 = 0.8 | x1 = 1
303.15 K, 100 kPa | 867.4 | 871.5 | 875.5 | 879.2 | 883.4 | 888.5
303.15 K, 5000 kPa | 870.6 | 874.6 | 878.5 | 882.3 | 886.3 | 891.4
303.15 K, 10000 kPa | 873.8 | 877.7 | 881.6 | 885.3 | 889.4 | 894.4
303.15 K, 15000 kPa | 876.8 | 880.7 | 884.5 | 888.3 | 892.3 | 897.3
303.15 K, 20000 kPa | 879.7 | 883.6 | 887.5 | 891.2 | 895.2 | 899.9
303.15 K, 25000 kPa | 882.6 | 886.4 | 890.3 | 894 | 897.9 | 902.8
303.15 K, 30000 kPa | 885.3 | 889.2 | 893 | 896.7 | 900.6 | 905.5
303.15 K, 35000 kPa | 888 | 891.8 | 895.6 | 899.3 | 903.2 | 908
303.15 K, 40000 kPa | 890.7 | 894.5 | 898.2 | 901.9 | 905.7 | 910.6
303.15 K, 45000 kPa | 893.2 | 896.9 | 900.7 | 904.4 | 908.1 | 913
303.15 K, 50000 kPa | 895.6 | 899.4 | 903 | 906.7 | 910.5 | 915.3
303.15 K, 55000 kPa | 898 | 901.7 | 905.4 | 909 | 912.8 | 917.6
303.15 K, 60000 kPa | 900.3 | 904 | 907.7 | 911.3 | 915.1 | 919.9
303.15 K, 65000 kPa | 902.6 | 906.3 | 909.9 | 913.6 | 917.3 | 922.1
323.15 K, 100 kPa | 852.1 | 856.3 | 860.2 | 864.2 | 868.1 | 873.2
323.15 K, 5000 kPa | 855.9 | 859.9 | 863.7 | 867.6 | 871.6 | 876.5
323.15 K, 10000 kPa | 859.4 | 863.3 | 867.1 | 870.9 | 874.9 | 879.8
323.15 K, 15000 kPa | 862.7 | 866.6 | 870.4 | 874.2 | 878.1 | 883
323.15 K, 20000 kPa | 865.9 | 869.8 | 873.5 | 877.3 | 881.2 | 886
323.15 K, 25000 kPa | 869 | 872.9 | 876.5 | 880.3 | 884.2 | 889
323.15 K, 30000 kPa | 872 | 875.8 | 879.4 | 883.2 | 887 | 891.8
323.15 K, 35000 kPa | 874.9 | 878.7 | 882.3 | 886.1 | 889.8 | 894.6
323.15 K, 40000 kPa | 877.6 | 881.5 | 885.1 | 888.7 | 892.6 | 897.3
323.15 K, 45000 kPa | 880.4 | 884.2 | 887.7 | 891.4 | 895.2 | 899.9
323.15 K, 50000 kPa | 882.9 | 886.7 | 890.3 | 894 | 897.7 | 902.4
323.15 K, 55000 kPa | 885.5 | 889.2 | 892.8 | 896.4 | 900.2 | 904.8
323.15 K, 60000 kPa | 888 | 891.8 | 895.3 | 899 | 902.7 | 907.3
323.15 K, 65000 kPa | 890.5 | 894.2 | 897.7 | 901.3 | 905 | 909.6
343.15 K, 100 kPa | 837.2 | 841.1 | 844.9 | 849 | 853.2 | 857.8
343.15 K, 5000 kPa | 841.2 | 845 | 848.8 | 852.7 | 857 | 861.5
343.15 K, 10000 kPa | 845 | 848.9 | 852.5 | 856.5 | 860.6 | 865.1
343.15 K, 15000 kPa | 848.8 | 852.5 | 856.2 | 860 | 864.2 | 868.6
343.15 K, 20000 kPa | 852.2 | 855.9 | 859.6 | 863.4 | 867.5 | 871.9
343.15 K, 25000 kPa | 855.6 | 859.3 | 862.9 | 866.7 | 870.7 | 875.1
343.15 K, 30000 kPa | 858.8 | 862.6 | 866.2 | 870 | 873.9 | 878.3
343.15 K, 35000 kPa | 862 | 865.6 | 869.2 | 873 | 876.9 | 881.2
343.15 K, 40000 kPa | 865 | 868.6 | 872.2 | 875.9 | 879.8 | 884.1
343.15 K, 45000 kPa | 867.9 | 871.6 | 875.1 | 878.8 | 882.6 | 887
343.15 K, 50000 kPa | 870.8 | 874.4 | 878 | 881.6 | 885.4 | 889.7
343.15 K, 55000 kPa | 873.6 | 877.1 | 880.6 | 884.3 | 888 | 892.3
343.15 K, 60000 kPa | 876.2 | 879.7 | 883.1 | 886.9 | 890.6 | 894.9
343.15 K, 65000 kPa | 878.9 | 882.4 | 885.8 | 889.5 | 893.2 | 897.4
